Assay results reported in patent US12226400B2, “Neuroprotective disruption of Kv2.1/syntaxin interaction by small molecules” (UNIVERSITY OF PITTSBURGH-OF THE COMMONWEALTH SYSTEM OF …, priority 2018, dated 2025).

Legend:
munc18/syntaxin 1A = target: T1, munc18/syntaxin 1A (Homo sapiens, UniProt Q16623); assay: Co-immunoprecipitation of munc18 and syntaxin in transfected HEK293 cells; type: cell-based; details: mean±SEM
T1 construct: syntaxin 1A plasmid a gift RC204873; host or cells: HEK293
Procedure: Western Blot. Co-immunoprecipitation of munc18 and syntaxin was carried out using PEI transfection of HEK293 cells (American Type Culture Collection) plated and maintained in DMEM medium with 10% FBS and penicillin/streptomycin. 24 hr prior to transfection, HEK293 cells are plated onto 150 mm petri dishes from confluent T75 flasks at the ratio of 2/3 flask per plate. 24 hr after plating, PEI transfection was carried out by mixing 25% munc18 (OriGene RC204873), 25% syntaxin 1A (gift from Raymond A Frizzell, Children's Hospital of Pittsburgh), and 50% pcDNA3 (Invitrogen) plasmids ([…] total plasmids with 500 μl medium without penicillin/streptomycin, and 110 μl PEI at 1 mg/ml). The PEI was lastly added to the mixture drop-wise to avoid clumping of the DNA precipitates. This transfection reagent was allowed to incubate in room temperature for at least 5 min. The HEK293 medium was replaced with medium without penicillin/streptomycin prior to the addition of the transfection mixture. At 24 hr after transfection, the transfection medium was replaced with regular medium containing either cpd5 or DMSO. The cells were lysed and protein was harvested 24 hr after cpd5/DMSO treatment using 200 μl NP40 buffer (Invitrogen) containing phenylmethylsulfonyl fluoride (PMSF, Sigma-Aldrich) and protease inhibitor cocktail (¼ tablet, cOmplete Mini, EDTA-free, Sigma-Aldrich). The resulting HEK293 sample was immunoprecipitated using mouse anti-syntaxin 1A antibody (abeam). The western blot was probed using the Biogen system with the same syntaxin 1A antibody and mouse anti-Flag (Sigma-Aldrich) used for the detection of munc18. Quantification of protein pulldown was normalized to the syntaxin signal before comparisons. SDS-PAGE in this study are run in 10% acrylamide. Small variations in band separation are caused by the semi-wet transfer method.

[1] = system: primary rat cortical neuron cultures; assay: LDH toxicity assay screening for innate toxicity; type: cell-based; details: up to 30 μM for 24 hr
[2] = target: syntaxin 1A / Kv2.1 peptides containing the C1aB region (Homo sapiens, UniProt Q16623); assay: Peptide spot array far-Western assay of syntaxin binding to Kv2.1 C1a peptides; set-up: species or system rat
From the text: Peptide spot array and far-Western assay. Peptide spot arrays (15 mers) spanning the proximal C-terminus residues 451-540 of rat Kv2.1 were constructed using the Spots-synthesis method. Standard 9-fluorenylmethoxy carbonyl (Fmoc) chemistry was used to synthesize the peptides and spot them onto nitrocellulose membranes prederivatized with a polyethylene glycerol spacer (Intavis). Fmoc protected and activated amino acids were spotted in quadruplicates on 20-30 arrays on 75 by 25 mm membranes using an Intavis MultiPep robot. The nitrocellulose membrane containing the immobilized peptides were rehydrated in Tris-buffered 0.1% Tween 20 (TBST) for 10 min, and then blocked for 1 h at room temperature (RT) with gentle shaking in TBST containing 5% (w/v) nonfat dry milk and then incubated with enriched STX1A protein containing the indicated concentrations of cpd5 for 1 h at RT with gentle shaking. Next, the membrane was incubated in primary antibody for syntaxin 1A (Millipore, catalog #AB5820-50UL, RRID:AB_2216165) for 2 h at RT with gentle shaking, followed by washing with TBST. Finally, the membrane was incubated in secondary antibody (goat anti-rabbit DyLight 800, catalog #355571, Thermo Fisher Scientific) for 45 min, washed for 3 times 5 min in TBST, and visualized by infrared fluorescence (Li-Cor). Similar procedures were followed for the alanine scan study with 9-mers.

[3] = system: rat primary culture cortical neurons; assay: TBOA excitotoxicity assay (LDH release) in cortical neuron cultures; type: cell-based
Procedure: All animal protocols described here and below were approved by the Institutional Animal Care and Use Committee of the University of Pittsburgh School of Medicine. Cortical neurons were prepared from embryonic day 16-17 rats of either sex. Pregnant donor rats (Charles River Laboratories) were killed by gradual CO2 inhalation, an American Veterinary Medical Association approved protocol (Leary et al., 2013). Cortices were dissociated with trypsin, and plated at 670,000 cells per well on poly-L-ornithine glass coverslips in six-well plates. Non-neuronal cell proliferation was inhibited with 1-2 μM cytosine arabinoside at 15 days in vitro (DIV). All cortical culture experiments shown here were performed on 18-25 DIV cultures.
DL-threo-β-benzyloxaspartate (TBOA; Tocris Bioscience) excitotoxicity assays were performed on cortical culture coverslips transferred into 24-well plates containing 10 mM HEPES, 0.01% bovine serum albumin (BSA)-supplemented MEM without phenol red (MHB). […] Following this exposure, external medium was collected for LDH colorimetric measurements using a toxicity kit (Sigma-Aldrich), as previously described 12. Each experiment contained three replicates of four conditions (with/without TBOA, with/without treatment). Relative toxicity was quantified as the LDH ratio of TBOA-treated over vehicle control values within each experiment. […]

T1 sequence (Q16623 whole entry, species assumed): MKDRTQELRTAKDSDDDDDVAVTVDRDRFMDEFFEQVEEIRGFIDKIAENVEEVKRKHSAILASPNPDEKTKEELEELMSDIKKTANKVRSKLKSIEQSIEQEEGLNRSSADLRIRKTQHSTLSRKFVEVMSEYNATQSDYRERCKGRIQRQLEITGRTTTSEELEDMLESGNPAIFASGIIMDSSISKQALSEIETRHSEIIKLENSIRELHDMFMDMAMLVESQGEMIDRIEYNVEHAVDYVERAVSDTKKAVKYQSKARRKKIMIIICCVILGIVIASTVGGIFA
syntaxin 1A / Kv2.1 peptides containing the C1aB region, sequence (Q16623 whole entry, species assumed, the tested form may be a part): as the sequence (Q16623 whole entry, species assumed) above

COc1ccc(CNC(=O)Nc2cccc(-c3nc4ccccc4s3)c2)cc1OC [cpd5, 3-[3-(1,3-benzothiazol-2-yl)phenyl]-1-[(3,4-dimethoxyphenyl)methyl]urea]
munc18 co-immunoprecipitated with syntaxin, cpd5/DMSO (munc18/syntaxin 1A; 10 μM cpd5, 24 hr): 1.032±0.034
munc18 co-immunoprecipitated with syntaxin, cpd5/DMSO (munc18/syntaxin 1A; 30 μM cpd5, 24 hr): 0.4459±0.09367
munc18 co-immunoprecipitated with syntaxin, cpd5/DMSO (munc18/syntaxin 1A; 100 μM cpd5, 24 hr): 0.4339±0.135
innate toxicity (LDH) [1]: no innate toxicity
innate toxicity (LDH) ([1]; listed as Cpd5): No neurotoxicity was observed
reduction of Kv2.1 peptides binding to syntaxin at peak values ([2]; Cpd5 100 μM): up to 60%
IC50 ([2]; percent inhibition compared to 0.1% DMSO, variable slope fit, read-out: IC50 for inhibition of syntaxin binding to peptides 22-28 (full C1aB domain) of the peptide array): 5.5 µM
TBOA toxicity (neuroprotection) ([3]; 10 μM Cpd5, pre-loading 1 hr and co-incubation, overnight TBOA 60 μM): significantly diminished TBOA toxicity
relative toxicity (LDH ratio of TBOA-treated over vehicle control) ([3]; 10 μM compound, 1 hr preincubation and coincubation, 75 μM TBOA, 24 hr, mean±SEM): 1.84±0.42
